In assay [1] the test system is planktonic and biofilm-associated Listeria monocytogenes and Salmonella typhimurium. The note with it: combined with streptomycin; cited from earlier work.
For assay [2], the system named is biofilms of K. pneumoniae. The settings on record: cited from earlier work.
The test system of assay [3] is Pseudomonas aeruginosa, Staphylococcus aureus and Candida albicans. The assay can be described thus: Antimicrobial efficacy of liposome-encapsulated silver and tea tree oil. The note with it: singly and in combination, in a controlled release liposomal carrier system. Format: cell-based. From the text: The aspects, advantages and/or other features of example embodiments of the present disclosure will become apparent to those skilled in the art, in view of the present detailed description. It should be apparent to those skilled in the art that the described embodiments of the present disclosure provided herein are merely exemplary and illustrative and not limiting. Numerous embodiments of modifications thereof are contemplated as falling within the scope of the present disclosure and equivalents thereto. Unless otherwise noted, technical terms are used according to conventional usage. Any publications mentioned in this specification are indicative of the level of those skilled in the art to which the invention pertains and are incorporated by reference in their entirety. […]

Regarding `Cc1ccc(C(C)C)c(O)c1` [thymol], in assay [1], the interaction with streptomycin entry is given as “synergistic effect”.

As to `C=CCc1ccc(O)c(OC)c1` [eugenol], in assay [1], the interaction with streptomycin result is reported as “synergistic effect”.

As for `O=C(O)c1cn(C2CC2)c2cc(N3CCNCC3)c(F)cc2c1=O` [ciprofloxacin], the inhibition/eradication of biofilms result in assay [2] is given as “inhibit/eradicate biofilms”.

For silver, the “antimicrobial efficacy and effective concentration required” value in assay [3] is given as “can improve their antimicrobial efficacy as well as reduce the effective concentration required”.

Take `COc1ccc2cc3[n+](cc2c1OC)CCc1cc2c(cc1-3)OCO2` [berberine]: the interaction with streptomycin entry in assay [1] was “synergistic effect”.

In the case of `O=CC=Cc1ccccc1` [cinnamaldehyde], the interaction with streptomycin result in assay [1] was “synergistic effect”.
